Measurements from US6518302B1, “Remedies” (Takara Shuzo Co., Ltd., priority 1999, dated 2003).

How the values were obtained:
[1] = system: NO production in celiac macrophages; test: NO production of celiac macrophages from orally dosed mice; format: in vivo; details: 1% suspension in olive oil, forced oral administration once a day, 12 times in 15 days, 10 or 30 ml/kg, ddY mice
Description: The compound (7) in Example 1 was suspended in olive oil (Nacalai Tesque) at a concentration of 1% to prepare a 1% suspension of the compound (7). The 1% suspension of the compound (7) prepared as described above was administered to ddY mice (Japan SLC, female, 7 weeks old) by forced oral administration once a day, 12 times in 15 days, at a dosage of 10 or 30 ml/kg. Tap water was similarly administered by forced oral administration as a control. Each group consisted of 3 mice. Thereafter, 4 ml of RPMI 1640 medium (Bio Whittaker, Code. 12-702F) containing 10% fetal calf serum was intraperitoneally injected. Media removed from 3 mice after extensive massage were combined to obtain celiac cells. The celiac cells were suspended in RPMI 1640 medium containing 10% fetal calf serum at a concentration of 10^6 cells/ml. 500 μl of the suspension was added to each well of a 48-well microtiter plate and the plate was incubated at 37° C. for 2 hours in the presence of 5% CO2. Adhesive cells obtained by removing the culture supernatant were used as celiac macrophages. 500 μl of fresh Dulbecco's modified Eagle's medium (Bio Whittaker, Code. 12-917F) without Phenol Red containing 10% fetal calf serum and 2 mM L-glutamine was added to each well. […] The concentration of NO2^− resulting from oxidation of NO in the medium was then measured as described in Example 6. […]

[2] = system: HL-60 (ATCC CCL-240) cells; test: Measurement of apoptotic cells using FACScan; format: cell-based, Human; details: HL-60 cells, cultured for 24 or 48 hours
Description: HL-60 (ATCC CCL-240) cells were cultured at 37° C. in RPMI 1640 medium (Bio Whittaker) containing 10% fetal calf serum (JRH) which had been treated at 56° C. for 30 minutes and suspended in RPMI 1640 medium at a concentration of 2.5×10^5 cells/4.5 ml. […] each of aqueous solutions of the compound (2) at a concentration of 10, 50 or 100 mM, the compound (7) at a concentration of 500, 1000 or 1500 μM, the compound (9) at a concentration of 750, 1500 or 3000 μM, the compound (11) at a concentration of 750, 1500 or 3000 μM, or the compound (14) at a concentration of 750, 1500 or 3000 μM was added to 4.5 ml of the suspension. The mixtures were incubated at 37° C. for 24 hours in the presence of 5% CO2. Measurement of apoptotic cells using FACScan as described in Saibo Kogaku, Bessatsu (Cell Technology, Suppl.) Jikken Protocol Series: Apoptosis Jikken Protocol (Experimental Protocol Series: Experimental Protocols for Apoptosis) (Shujun-sha) pp. 129-130 and analysis of DNA fragmentation as described in Bio Manual UP Series: […] Apoptosis Jikken-ho (Bio Manual UP Series: Current Experimental Methods for Apoptosis) (Yodo-sha) pp. 61-63 were carried out using cells cultured for 24 or 48 hours in the same manner as that described above.

[3] = system: HL-60 (ATCC CCL-240) cells; test: Apoptosis morphology in HL-60 cells under optical microscope; format: cell-based, Human; details: 24 hours
Description: HL-60 (ATCC CCL-240) cells were cultured at 37° C. in RPMI 1640 medium (Bio Whittaker) containing 10% fetal calf serum (JRH) which had been treated at 56° C. for 30 minutes and suspended in RPMI 1640 medium at a concentration of 2.5×10^5 cells/4.5 ml. […] each of aqueous solutions of the compound (2) at a concentration of 10, 50 or 100 mM, the compound (7) at a concentration of 500, 1000 or 1500 μM, the compound (9) at a concentration of 750, 1500 or 3000 μM, the compound (11) at a concentration of 750, 1500 or 3000 μM, or the compound (14) at a concentration of 750, 1500 or 3000 μM was added to 4.5 ml of the suspension. The mixtures were incubated at 37° C. for 24 hours in the presence of 5% CO2. The cultured cells were examined under an optical microscope.

## O=C[C@H](O)[C@H]1OC[C@@H](O)[C@@H]1OC(=O)c1ccccc1 [Compound (7), 4-O-benzoyl-3,6-anhydro-D-galactose]
[1]
  activity of inhibiting NO production in celiac macrophages (LPS and IFN-γ): remarkable activity of inhibiting NO production
[2]
  final concentration at which apoptotic cells were observed: ≥ 100 µM
[3]
  final concentration at which condensation of nuclei, shrinking of cells and formation of apoptotic bodies were observed: ≥ 100 µM
